In patent US6703395B2, “Cyclin dependent kinase inhibitor” (priority 1998, dated 2004):
pIC50: −log10 of the molar value.

Tests used:
CEM cells [1] = experiment: Apoptosis by phase contrast and electron microscopy; type: cell-based, human; settings: 50 μm, 8 hours (FIG. 3)
CEM cells [2] = experiment: Apoptosis and cell cycle analysis by FACS (DNA content); type: cell-based, human; settings: 50 μm (FIG. 4), method 70 μM, 3-24 hours
Protocol: Cells (1×10^6/ml) were cultured in 6-well plates with or without 70 μM concentration of test compound at 37° C. and 5% CO2 for 3-24 hours. Following incubation, cells were pelleted, washed in Hank's buffered salt solution and fixed in 96% ethanol overnight at −20° C. Low molecular weight apoptotic DNA was extracted in citrate buffer. RNA was cleaved using RNAse (50 mg/ml).

[3] = tested on: Human T-lymphoblastic leukemia cell line CEM; experiment: MTT in vitro cytotoxicity assay, CEM; type: cell-based; settings: 72 hours incubation
Source text: (§1) One of the parameters used as the basis for colorimetric assays is the metabolic activity of viable cells. For example, a microtiter assay which uses the tetrazolium salt 3-[4,5-Dimethylthiazol-2-yl]-2,5-diphenyltetrazolium bromide; Thiazolyl blue (hereinafter MTT) is now widely used to quantitate cell proliferation and cytotoxicity, for instance, in drug screening programs and in chemosensitivity testing. Because tetrazolium salts are cleaved only by metabolically active cells, these assays detect viable cells exclusively. In the case of the MTT-assay, yellow soluble tetrazolium salt is reduced to colored water-insoluble formazan salt. After it is solubilized, the formazan formed can easily and rapidly be quantified in a conventional ELISA plate reader at 570 nm (maximum absorbance). The quantity of reduced formazan corresponds to number of vital cells in the culture. […]
(§2) The cell suspensions that were prepared and diluted according to the particular cell type and the expected target cell density (2,500-30,000 cells per well based on cell growth characteristics) were added by pipet (80 μl) into 96 well microtiter plates. […] Usually, test compound were evaluated at six 4-fold dilutions. […] The optical density (OD) was measured at 540 nm with the Labsystem iEMS Reader MF (UK). […]

[4] = tested on: promyelocytic leukemia HL-60; experiment: MTT in vitro cytotoxicity assay, HL-60; type: cell-based, human
Source text: as §1, §2

B16 melanoma [5] = experiment: MTT in vitro cytotoxicity assay, B16; type: cell-based, mouse
Source text: as §1, §2

B16F10 melanoma = experiment: MTT in vitro cytotoxicity assay, B16F10; type: cell-based, mouse
Source text: as §1, §2

[6] = tested on: human breast carcinoma cell line MCF-7; experiment: MTT in vitro cytotoxicity assay, MCF7; type: cell-based
Source text: as §1, §2

[7] = tested on: cervical carcinoma cells HELA; experiment: MTT in vitro cytotoxicity assay, HELA; type: cell-based; settings: 72 hours incubation
Source text: as §1, §2

[8] = tested on: mouse immortalized bone marrow macrophages B10A.4; experiment: MTT in vitro cytotoxicity assay, B10#4; type: cell-based
Source text: as §1, §2

[9] = tested on: mouse immortalized bone marrow macrophages B2.4; experiment: MTT in vitro cytotoxicity assay, B2#4; type: cell-based; settings: 72 hours incubation
Source text: as §1, §2

U937 = experiment: MTT in vitro cytotoxicity assay, U937; type: cell-based
Source text: (§3) One of the parameters used as the basis for colorimetric assays is the metabolic activity of viable cells. For example, a microtiter assay which uses the tetrazolium salt 3-[4,5-Dimethylthiazol-2-yl]-2,5-diphenyltetrazolium bromide; Thiazolyl blue (hereinafter MTT) is now widely used to quantitate cell proliferation and cytotoxicity, for instance, in drug screening programs and in chemosensitivity testing. Because tetrazolium salts are cleaved only by metabolically active cells, these assays detect viable cells exclusively. In the case of the MTT-assay, yellow soluble tetrazolium salt is reduced to colored water-insoluble formazan salt. After it is solubilized, the formazan formed can easily and rapidly be quantified in a conventional ELISA plate reader at 570 nm (maximum absorbance). The quantity of reduced formazan corresponds to number of vital cells in the culture.
as §2, with “plates. Inoculates were allowed a preincubation period of 24 hours at 37° C. and 5% CO2 for stabilization.” for “plates.”

L1210 leukemia = experiment: MTT in vitro cytotoxicity assay, L1210; type: cell-based, mouse
Source text: as §1, §2

P388D1 leukemia [10] = experiment: MTT in vitro cytotoxicity assay, P388D1; type: cell-based, mouse
Source text: as §1, §2

mouse fibroblasts NIH3T3 = experiment: MTT in vitro cytotoxicity assay, NIH3T3; type: cell-based
Source text: as §1, §2

normal human lymphocytes = experiment: MTT in vitro cytotoxicity assay, lymphocytes; type: cell-based; settings: 72 hours incubation
Source text: as §3
as §2, with “plates. Inoculates were allowed a preincubation period of 24 hours at 37° C. and 5% CO2 for stabilization.” for “plates.”

tumor cell lines = experiment: MTT in vitro cytotoxicity, panel of tumor cell lines; type: cell-based; settings: summary of Table 1
Source text: as §1, §2

P388D1 leukemia [11] = experiment: In vivo antitumor activity, intraperitoneally transplanted P388D1 leukemia; settings: DBA-2 mice, 1 mg 4x daily for 7 days
B16 melanoma [12] = experiment: In vivo antitumor activity, subcutaneously inoculated B16 melanoma; settings: C57BL-10 mice, 1 mg subcutaneously 4x daily for 7 days
[13] = mouse
Protocol: in vivo anti-cancer activity assays: water insoluble compounds: 50% DMSO, 10 mM HCl in saline.
Cells were trypsinized, washed in PBS and suspended in PBS with 0.5% bovine serum albumin. 0.5 miilion cells from this suspension was applied subcutaneously to C57BL-10 mice. […] The compounds (1 mg) were applied subcutaneously 4× daily, for 7 days.
Cells were scraped, washed in PBS and suspended in PBS with 0.5% bovine serum albumin. 0.5 million cells from this suspension was applied intraperitoneally to DBA-2 mice. […] The compounds (1 mg) were applied subcutaneously 4× daily, for 7 days.

## CCC(CO)Nc1nc(NCc2ccccc2)c2ncn(C(C)C)c2n1 (stereo not drawn) [ROSC, 2-[(1-ethyl-2-hydroxyethyl)amino]-6-benzylamino-9-isopropylpurine]
CEM cells [1]
  apoptosis by phase contrast / electron microscopy: apoptosis had occurred
CEM cells [2]
  apoptosis by flow cytometric analysis of DNA content: Extensive apoptosis

## CC(C)=CCNc1ncnc2nc[nH]c12 [IP, isopentenyladenine]
[3]
  pIC50: 3.77
[4]; 72 hours incubation
  pIC50: 3.80
B16 melanoma [5]; 72 hours incubation
  pIC50: 3.57
B16F10 melanoma; 72 hours incubation
  pIC50: 3.57
[6]; 72 hours incubation
  pIC50: 3.57
[7]
  pIC50: 3.57
[8]; 72 hours incubation
  pIC50: 3.57
[9]
  pIC50: 3.57
U937; 72 hours incubation
  pIC50: 3.57
L1210 leukemia; 72 hours incubation
  pIC50: 3.57
P388D1 leukemia [10]; 72 hours incubation
  pIC50: 3.57
Mouse fibroblasts NIH3T3; 72 hours incubation
  pIC50: 3.57
Normal human lymphocytes
  pIC50: 3.57
Tumor cell lines
  toxicity to tumor cells (in words): did not show significant toxicity
P388D1 leukemia [11]
  in vivo activity, P388D1 leukemia model (survival): no activity
B16 melanoma [12]
  in vivo activity, B16 melanoma model (medium survival time): no activity
[13]
  toxicity in vivo / tissue necrosis at the site of application: no activity and toxicity

## Cn1cnc2c(NCc3ccccc3)nc(NCCO)nc21 [OC, 2-(2-hydroxyethylamino)-6-benzylamino-9-methylpurine]
[3]; Homo sapiens
  pIC50: 4.68
[4]; Homo sapiens, HL-60, 72 hours incubation
  pIC50: 4.54
B16 melanoma [5]; Mus musculus, B16, 72 hours incubation
  pIC50: 4.30
B16F10 melanoma; Mus musculus, B16-F10, 72 hours incubation
  pIC50: 4.69
[6]; Homo sapiens, MCF7, 72 hours incubation
  pIC50: 4.52
[7]; Homo sapiens, HeLa
  pIC50: 4.00
[8]; Mus musculus, B104, 72 hours incubation
  pIC50: 4.69
[9]; Mus musculus, Bone marrow macrophage
  pIC50: 5.09
U937; Homo sapiens, U-937, 72 hours incubation
  pIC50: 4.20
L1210 leukemia; Mus musculus, L1210, 72 hours incubation
  pIC50: 4.63
P388D1 leukemia [10]; Mus musculus, P388D1, 72 hours incubation
  pIC50: 4.84
Mouse fibroblasts NIH3T3; Mus musculus, NIH3T3, 72 hours incubation
  pIC50: 3.57
Normal human lymphocytes; Homo sapiens, Lymphocyte
  pIC50: 3.57
Tumor cell lines
  toxicity to tumor cells (in words): moderately effective
P388D1 leukemia [11]
  in vivo activity, P388D1 leukemia model (survival): significant in vivo activity
B16 melanoma [12]
  in vivo activity, B16 melanoma model (medium survival time): significant in vivo activity
CEM cells [1]
  apoptosis by phase contrast / electron microscopy: apoptosis had occurred
